{"source": "patent US20080102275A1", "about": "“Method For Coating Powders” (priority 2004, published 2008)", "key": {"[1]": {"test": "release/dissolution test of pseudoephedrine particles in distilled water, quantitative determination by UV spectrophotometry", "assay_type": "physicochemical", "settings": "ambient temperature, FIG. 18"}, "[2]": {"test": "release/dissolution test of BSA particles in distilled water, quantitative determination by UV spectrophotometry", "assay_type": "physicochemical", "settings": "ambient temperature, FIG. 19", "method": "This time, a heat-sensitive protein, BSA (Bovine Serum Albumin), the mean diameter of which, measured by particle size determination, is 85.6 μm, is coated according to FIG. 2 of the process according to the present invention. 3 g of BSA are placed in the system for injection by CO2 and 3 g of Precirol® are placed in the autoclave. The supercritical medium conditions are 110 bar and 50° C. for a dissolution time of 30 minutes. The pressure for injection of the BSA particles is 80 bar. Once coinjection has been carried out, the coated particles are quantitatively determined by UV spectrophotometry (FIG. 19). While the crude BSA is completely dissolved in distilled water at ambient temperature after 5 minutes, the protein coated with Precirol® (BSA 1 test) for its part takes close to 30 minutes in order to be completely dissolved in distilled water at ambient temperature."}}}
{"compound": "CN[C@@H](C)[C@@H](O)c1ccccc1", "note": "[crude pseudoephedrine, pseudoephedrine]", "values": [{"measurement": "time to complete dissolution", "setting": "[1]", "result": 10, "unit": "min"}]}
{"compound": "crude BSA: heat-sensitive protein, BSA (Bovine Serum Albumin), uncoated", "values": [{"measurement": "time to complete dissolution", "setting": "[2]", "result": 5, "unit": "min"}]}
